Consider 14 compounds from patent US20240308998A1, “PYRROLOPYRIDONE DERIVATIVES USEFUL IN THE TREATMENT OF CANCER” (Tay Therapeutics Limited, priority 2021, published 2024).

For series [1], the target named is T1, BRD4 BD2 (Homo sapiens, UniProt O60885).
T1 construct: HEK293 cells were transfected using NanoLuc-BRD4-BD1 or NanoLuc-BRD4-BD2 fusion vectors; host or cells: HEK293
Description: NanoBRET bromodomain assay, BRD4 BD2. Conditions: for Fold selectivity BRD4 BD1/BD2: IC50 BD1/IC50 BD2; for IC50: NanoBRET, HEK293 cells transfected with NanoLuc-BRD4-BD2. Format: cell-based. Here is the method:
(§1) HEK293 cells were transfected using NanoLuc-BRD4-BD1 or NanoLuc-BRD4-BD2 fusion vectors and incubated at 37° C. in an atmosphere of 5% CO2 for 20-24 hours. The transfected cells were then dispensed into 96-well plates using 90 μl cell suspension per well containing 2×10^5 cells/ml in Opti-MEM and 1x final concentration of tracer. 90 μl per well of cell suspension without tracer was also dispensed into at least 3 wells as “No tracer control samples” for background correction. Serially diluted test compounds were prepared at 1000× concentration in DMSO and further diluted to 10× concentration in Opti-MEM. 10 μl per well of the serially diluted 10× test compound was added to the 96-well plates containing cells with 1x tracer. Plates were then incubated at 37° C.+5% C02 incubator for 2 hours. Immediately prior to BRET measurements, a 3x solution consisting of 1:166 dilution of Nano-Glo® Substrate plus a 1:500 dilution of Extracellular NanoLuc Inhibitor in Opti-MEM was prepared and 50 μl per well was added to the cells. Donor emission (450 nm) and acceptor emission (610 nm) were measured using PHERAstar (BMG LabTech). For data analysis, the raw BRET ratio was generated and converted to milliBRET units with background correction using the formula: [(Acceptorsample/Donorsample)−(Acceptorno tracer control/Donorno tracer control)]×1000. The mBU data was plotted as a function of compound concentration and IC50s for BRET assay were determined by nonlinear regression analysis of concentration response curves using the GraphPad Prism software.
Fold Selectivity Calculated (IC50 BD1/IC50 BD2).

Series [2] addresses T2, BRD4 BD1 (Homo sapiens, UniProt O60885).
T2 construct: HEK293 cells were transfected using NanoLuc-BRD4-BD1 or NanoLuc-BRD4-BD2 fusion vectors; host or cells: HEK293
Kind of series: NanoBRET bromodomain assay, BRD4 BD1. Conditions: HEK293 cells transfected with NanoLuc-BRD4-BD1. Type of series: cell-based. Here is the method:
as §1

Series [3] is described as follows: Intrinsic clearance in rat liver microsomes. Type of series: in vitro ADME. The following applies: pH 7.4, NADPH, read-out: Rat Microsomal Stability T½. Here is the method: A 50 mM stock solution (in DMSO) was prepared for the compound. From the stock solution, a working solution of 0.5 mM was prepared by diluting the compound in DMSO. This concentration of working solution was prepared considering a final concentration of 1 uM with 0.1% DMSO. The compound (1 uL of working solution) was spiked in PBS with pH 7.4 (22 uL) at a concentration of 1 uM. Subsequently, 110 uL of 10 mM NADPH was added (as a co-factor). The sample was incubated at 37° C. for 15 min. Following this, pre-warmed rat liver microsomes (27.5 uL; final protein conc. 0.5 mg/mL) were added. The samples were then incubated at 37° C. Aliquots of samples were withdrawn at 0, 5, 15, 30, 45 and 60 min. The reaction was stopped by using chilled acetonitrile containing internal standard. The samples were centrifuged and the supernatants analysed by LC-MS/MS. The percent compound remaining at each time point was calculated with respect to that of the 0 min sample. The data were then analysed to calculate half-life. Note that control samples were run without NADPH and blank samples were prepared using DMSO without the test Compound.

A short description of series [4]: Balb/c mouse pharmacokinetics after oral (PO) dosing. Type of series: in vivo. Conditions: male, plasma, 5 mg/kg, Casette. Here is the method: Compounds were formulated in 5% DMSO, 40% PEG-400, 55% Milli-Q water at a concentration of 0.5 mg/mL for 5 mg/kg and 3 mg/mL for 30 mg/kg PO dosing. […] Blood was sampled at various timepoints and plasma isolated. 10 μL of plasma with 5 μL of blank Balb/c mouse plasma were added to 200 μL of acetonitrile containing IS mixture. The samples were vortexed for 30 s. After centrifugation at 4 degree Celsius, 3900 rpm for 15 min, the supernatant was diluted 3 times with water. 20 μL of diluted supernatant was injected into the LC/MS/MS system for quantitative analysis and concentration of analyte determined by comparison with matrix matched standard curve. WinNonlin (Phoenix™, version 8.3) or other similar software was used for pharmacokinetic calculations.

In the case of `Cc1cccc(C)c1Oc1cn(C)c(=O)cc1-c1cn(C)c(=O)c2[nH]c(-c3ccc(C#N)cc3)cc12` [Example 24, 4-(4-(5-(2,6-dimethylphenoxy)-1-methyl-2-oxo-1,2-dihydropyridin-4-yl)-6-methyl-7-oxo-6,7-dihydro-1H-pyrrolo[2,3-c]pyridin-2-yl) benzonitrile], in series [1], the “Fold selectivity BRD4 BD1/BD2” value is “x (Fold >2 and ≤50)”; the IC50 lay in the range of 200 to 1000 nM. For the same compound, the IC50 in series [2] is over 1000 nM. Further, the half-life at 1 uM in series [3] is over 1 h.

Turning to `Cc1cccc(C)c1Oc1cn(C)c(=O)cc1-c1cn(C)c(=O)c2[nH]c(-c3ccc(F)cc3)cc12` [Example 25, 4-(5-(2,6-dimethylphenoxy)-1-methyl-2-oxo-1,2-dihydropyridin-4-yl)-2-(4-fluorophenyl)-6-methyl-1,6-dihydro-7H-pyrrolo[2,3-c] pyridin-7-one], the “Fold selectivity BRD4 BD1/BD2” value in series [1] was “xxx (Fold >200)”. The results for the IC50 in series [1] and in series [2] were at most 50 nM and over 1000 nM, respectively. In series [3], the half-life at 1 uM is over 1 h.

As to `Cc1cccc(C)c1Oc1cn(C)c(=O)cc1-c1cn(C)c(=O)c2[nH]c(-c3ccc(S(C)(=O)=O)cc3)cc12` [Example 26, 4-(5-(2,6-dimethylphenoxy)-1-methyl-2-oxo-1,2-dihydropyridin-4-yl)-6-methyl-2-(4-(methylsulfonyl)phenyl)-1,6-dihydro-7H-pyrrolo[2,3-c] pyridin-7-one], in series [1], the “Fold selectivity BRD4 BD1/BD2” value is “xx (Fold >50 and ≤200)”; the IC50 is at most 50 nM. In addition, in series [2], the IC50 is over 1000 nM. Besides, the half-life at 1 uM in series [3] is over 1 h.

Consider `Cc1cccc(C)c1Oc1cn(C)c(=O)cc1-c1cn(C)c(=O)c2[nH]c(-c3ccc(C(F)(F)F)cc3)cc12` [Example 28, 4-(5-(2,6-dimethylphenoxy)-1-methyl-2-oxo-1,2-dihydropyridin-4-yl)-6-methyl-2-(4-(trifluoromethyl)phenyl)-1,6-dihydro-7H-pyrrolo[2,3-c] pyridin-7-one], for which, in series [1], the “Fold selectivity BRD4 BD1/BD2” value was “xx (Fold >50 and ≤200)”; the IC50 fell in the range of 50 to 200 nM. In addition, the IC50 in series [2] is over 1000 nM. In addition, in series [3], the half-life at 1 uM is over 1 h.

On to `Cc1cccc(C)c1Oc1cn(C)c(=O)cc1-c1cn(C)c(=O)c2[nH]c(-c3ccc(C(N)=O)cc3)cc12` [Example 29, 4-(4-(5-(2,6-dimethylphenoxy)-1-methyl-2-oxo-1,2-dihydropyridin-4-yl)-6-methyl-7-oxo-6,7-dihydro-1H-pyrrolo[2,3-c]pyridin-2-yl) benzamide], for which, in series [1], the “Fold selectivity BRD4 BD1/BD2” value is “xxx (Fold >200)” and the IC50 is at most 50 nM. Besides, in series [2], the IC50 is over 1000 nM. In addition, the half-life at 1 uM in series [3] was over 1 h.

For the compound `Cc1cccc(C)c1Oc1cn(C)c(=O)cc1-c1cn(C)c(=O)c2[nH]c(-c3cnn[nH]3)cc12` [Example 30, 4-(5-(2,6-dimethylphenoxy)-1-methyl-2-oxo-1,2-dihydropyridin-4-yl)-6-methyl-2-(1H-1,2,3-triazol-5-yl)-1,6-dihydro-7H-pyrrolo[2,3-c] pyridin-7-one], the “Fold selectivity BRD4 BD1/BD2” value in series [1] is “xx (Fold >50 and ≤200)”. The figures for the IC50 in series [1] and in series [2] were 50 to 200 nM and over 1000 nM, respectively. Besides, in series [3], the half-life at 1 uM was over 1 h.

In the case of `Cc1ncc(-c2cc3c(-c4cc(=O)n(C)cc4Oc4c(C)cccc4C)cn(C)c(=O)c3[nH]2)s1` [Example 31, 4-(5-(2,6-dimethylphenoxy)-1-methyl-2-oxo-1,2-dihydropyridin-4-yl)-6-methyl-2-(2-methylthiazol-5-yl)-1,6-dihydro-7H-pyrrolo[2,3-c] pyridin-7-one], the “Fold selectivity BRD4 BD1/BD2” value in series [1] is “xx (Fold >50 and ≤200)”. Also, the IC50 in series [1] was at most 50 nM; in series [2], 50 to 500 nM. Besides, the half-life at 1 uM in series [3] was over 1 h.

Turning to `Cc1cccc(C)c1Oc1cn(C)c(=O)cc1-c1cn(C)c(=O)c2[nH]c(-c3ccn[nH]3)cc12` [Example 32, 4-(5-(2,6-dimethylphenoxy)-1-methyl-2-oxo-1,2-dihydropyridin-4-yl)-6-methyl-2-(1H-pyrazol-5-yl)-1,6-dihydro-7H-pyrrolo [2,3-c] pyridin-7-one], the “Fold selectivity BRD4 BD1/BD2” value in series [1] is “xx (Fold >50 and ≤200)”. In addition, the IC50 in series [1] is 50 to 200 nM; in series [2], over 1000 nM. For the same compound, in series [3], the half-life at 1 uM is over 1 h.

Turning to `Cc1cccc(C)c1Oc1cn(C)c(=O)cc1-c1cn(C)c(=O)c2[nH]c(-c3cnnn3C)cc12` [Example 33, 4-(5-(2,6-dimethylphenoxy)-1-methyl-2-oxo-1,2-dihydropyridin-4-yl)-6-methyl-2-(1-methyl-1H-1,2,3-triazol-5-yl)-1,6-dihydro-7H-pyrrolo[2,3-c] pyridin-7-one], in series [1], the “Fold selectivity BRD4 BD1/BD2” value was “x (Fold >2 and ≤50)”; the IC50 was over 1000 nM. Besides, the IC50 in series [2] was over 1000 nM. In series [3], the half-life at 1 uM was over 1 h.

In the case of `Cc1cccc(C)c1Oc1cn(C)c(=O)cc1-c1cn(C)c(=O)c2[nH]c(-c3ccc(C(=O)O)cc3)cc12` [Example 35, 4-(4-(5-(2,6-dimethylphenoxy)-1-methyl-2-oxo-1,2-dihydropyridin-4-yl)-6-methyl-7-oxo-6,7-dihydro-1H-pyrrolo[2,3-c]pyridin-2-yl) benzoic acid], the “Fold selectivity BRD4 BD1/BD2” value in series [1] is “— (Fold ≥0 and ≤2)”. The IC50 in series [1] and in series [2] was over 1000 nM throughout. For the same compound, the half-life at 1 uM in series [3] is over 1 h.

In the case of `Cc1cccc(C)c1Oc1cn(C)c(=O)cc1-c1cn(C)c(=O)c2[nH]c(-c3cnn(C)c3C)cc12` [Example 36, 2-(1,5-dimethyl-1H-pyrazol-4-yl)-4-(5-(2,6-dimethylphenoxy)-1-methyl-2-oxo-1,2-dihydropyridin-4-yl)-6-methyl-1,6-dihydro-7H-pyrrolo[2,3-c] pyridin-7-one], in series [1], the “Fold selectivity BRD4 BD1/BD2” value was “xx (Fold >50 and ≤200)”; the IC50 was at most 50 nM. The compound further yielded an IC50 in series [2] of over 1000 nM. Moreover, the half-life at 1 uM in series [3] is over 1 h.

For the compound `Cc1cccc(C)c1Oc1cn(C)c(=O)cc1-c1cn(C)c(=O)c2[nH]c(-c3ccc(F)cc3F)cc12` [Example 47, 2-(2,4-difluorophenyl)-4-(5-(2,6-dimethylphenoxy)-1-methyl-2-oxo-1,2-dihydropyridin-4-yl)-6-methyl-1,6-dihydro-7H-pyrrolo[2,3-c] pyridin-7-one], in series [1], the “Fold selectivity BRD4 BD1/BD2” value is on record as “xxx (Fold >200)” and the IC50 was at most 50 nM. This compound registered an IC50 in series [2] of over 1000 nM. In series [4], the concentration peaked (Cmax) at 718 ng/mL and the bioavailability turned out to be 100%.

On to `Cc1cccc(C)c1Oc1cn(C)c(=O)cc1-c1cn(C)c(=O)c2[nH]c(-c3cn(C(C)C)nc3C#N)cc12` [Example 49, 4-{4-[5-(2,6-dimethylphenoxy)-1-methyl-2-oxopyridin-4-yl]-6-methyl-7-oxo-1H-pyrrolo[2,3-c]pyridin-2-yl}-1-isopropylpyrazole-3-carbonitrile], for which, in series [1], the “Fold selectivity BRD4 BD1/BD2” value is “xx (Fold >50 and ≤200)”; the 50% inhibitory concentration (IC50) is at most 50 nM. In addition, the IC50 in series [2] was in the range of 50 to 500 nM. In series [4], this compound yielded a Cmax of 19.3 ng/mL and a bioavailability of 7.81%.

Take `Cc1cccc(C)c1Oc1cn(C)c(=O)cc1-c1cn(C)c(=O)c2[nH]c(-c3cccc(F)c3F)cc12` [Example 50, 4-[2-(2,3-difluorophenyl)-6-methyl-7-oxo-1H-pyrrolo[2,3-c]pyridin-4-yl]-5-(2,6-dimethylphenoxy)-1-methylpyridin-2-one]: in series [1], the “Fold selectivity BRD4 BD1/BD2” value was “xxx (Fold >200)” and the IC50 is at most 50 nM. Further, the IC50 in series [2] is over 1000 nM. In series [4], this compound displayed a Cmax of 293 ng/mL and a bioavailability of 73%.
